Source: patent publication US20090043129A1 (priority 2005, published 2009)

Target: T1, Fatty Acid Amide Hydrolase (FAAH) (Rattus norvegicus, UniProt P97612)
T1 sequence (P97612 1-579): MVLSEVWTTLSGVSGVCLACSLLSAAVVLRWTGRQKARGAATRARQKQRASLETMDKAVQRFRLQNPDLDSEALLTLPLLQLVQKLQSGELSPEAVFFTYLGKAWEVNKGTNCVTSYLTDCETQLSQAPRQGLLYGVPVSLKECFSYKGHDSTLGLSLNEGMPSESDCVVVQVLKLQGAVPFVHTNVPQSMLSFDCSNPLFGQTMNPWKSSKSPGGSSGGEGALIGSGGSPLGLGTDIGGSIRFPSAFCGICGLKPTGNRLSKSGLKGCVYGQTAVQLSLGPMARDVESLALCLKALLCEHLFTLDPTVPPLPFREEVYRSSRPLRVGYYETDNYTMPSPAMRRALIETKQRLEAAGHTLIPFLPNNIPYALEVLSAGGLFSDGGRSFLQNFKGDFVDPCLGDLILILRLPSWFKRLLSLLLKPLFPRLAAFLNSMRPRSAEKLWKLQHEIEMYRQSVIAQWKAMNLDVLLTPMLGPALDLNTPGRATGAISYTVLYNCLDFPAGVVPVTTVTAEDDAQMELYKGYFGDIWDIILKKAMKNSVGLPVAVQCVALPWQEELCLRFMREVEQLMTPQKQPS
Assay: biochemical
Details: not given
Protocol: Assay for Fatty Acid Amide Hydrolase (FAAH)
The effect of compounds on the enzymatic hydrolysis of [^14C]anandamide (6 μM) was studied using membranes prepared from rat brain incubated with increasing concentrations of compounds in 50 mM Tris-HCl, pH 9, for 30 minutes at 37° C. (Di Marzo et al., 2002). [^14C]ethanolamine produced from [^14C]anandamide hydrolysis was measured counting the scintillation of the aqueous phase after extraction of the incubation mixture with 2 volumes of CHCl3/CH3OH (2:1 by volume). […]

Row | SMILES | IC50 [µM]
1 | CCCCCCCCCCCCCCCc1cccc(OCCCCCC(=O)NC2CC2)c1 [Compound 16, 6-(3-Pentadecyl-phenoxy)-hexanoic acid cyclopropylamide] | > 10
2 | CCCCCc1cc(O)cc(OCCCCCC(=O)NCCO)c1 [Compound 21, 6-(3-Hydroxy-5-pentyl-phenoxy)-hexanoic acid (2-hydroxy-ethyl)-amide] | > 10
3 | CCCCCc1cc(O)cc(OCCCCCC(=O)NC2CC2)c1 [Compound 22, 6-(3-Hydroxy-5-pentyl-phenoxy)-hexanoic acid cyclopropylamide] | > 10
4 | CCCCCc1cc(O)cc(OCCCCCC(=O)Nc2ccc(O)cc2)c1 [Compound 23, 6-(3-Hydroxy-5-pentyl-phenoxy)-hexanoic acid (4-hydroxy-phenyl)amide] | > 10
5 | CCCCCc1cc(O)cc(OCCCCCCCCCCC(=O)Nc2ccc(O)cc2)c1 [Compound 26, 11-(3-Hydroxy-5-pentyl-phenoxy)-undecanoic acid (4-hydroxy-phenyl)-amide] | > 10
6 | O=C(CCCCCOc1cccc(O)c1)NCCO [Compound 30, 6-(3-Hydroxy-phenoxy)-hexanoic acid (2-hydroxy-ethyl)-amide] | > 10
7 | O=C(CCCCCOc1cccc(O)c1)NC1CC1 [Compound 31, 6-(3-Hydroxy-phenoxy)-hexanoic acid cyclopropylamide] | > 10
8 | O=C(CCCCCCCCCCOc1cccc(O)c1)NCCO [Compound 33, 11-(3-Hydroxy-phenoxy)-undecanoic acid (2-hydroxy-ethyl)-amide] | > 10
9 | O=C(CCCCCCCCCCOc1cccc(O)c1)NC1CC1 [Compound 34, 11-(3-Hydroxy-phenoxy)-undecanoic acid cyclopropilamide] | > 10
10 | CCCCCCc1ccc(OCCCCCC(=O)NCCO)cc1O [Compound 39, 6-(3-Hydroxy-4-hexyl-phenoxy)-hexanoic acid (2-hydroxy-ethyl)-amide] | > 10
11 | CCCCCCc1ccc(OCCCCCCCCCCC(=O)NC2CC2)cc1O [Compound 43, 11-(3-Hydroxy-4-hexyl-phenoxy)-undecanoic acid cyclopropylamide] | > 10
12 | CCCCCCc1ccc(O)cc1OCCCCCC(=O)NC1CC1 [Compound 49, 6-(2-Hexyl-5-hydroxy-phenoxy)-hexanoic acid cyclopropylamide] | > 10
13 | CCCCCCc1ccc(O)cc1OCCCCCCCCCCC(=O)NCCO [Compound 51, 11-(2-Hexyl-5-hydroxy-phenoxy)-undecanoic acid (2-hydroxy-ethyl)-amide] | > 10

Same assay, conditions: rat brain membranes; read-out: FAAH (n.a. class)

Row | SMILES | IC50 [µM]
14 | CCCCCCCCCCCCCCCc1cccc(OCCCCCC(=O)NCCO)c1 [Compound 15, 6-(3-Pentadecyl-phenoxy)-hexanoic acid (2-hydroxy-ethyl)-amide] | > 10
15 | CCCCCCCCCCCCCCCc1cccc(OCCCCCC(=O)Nc2ccc(O)cc2)c1 [Compound 17, 6-(3-Pentadecyl-phenoxy)-hexanoic acid (4-hydroxy-phenyl)-amide] | > 10

Test system: Anandamide Membrane Transporter (AMT)
Assay: Anandamide uptake by RBL-2H3 cells
Type: cell-based
Details: anandamide uptake, read-out: AMT IC50
Protocol: Assay for the Anandamide Membrane Transporter (AMT)
The effect of the compounds on the uptake of anandamide by the RBL-2H3 cells was studied as described (Di Marzo et al., 2002). Cells were incubated with [^14C]anandamide (4 μM) for 5 minutes at 37° C., in the presence or absence of varying concentrations of the inhibitors. Residual [^14C]anandamide in the incubation media after extraction with CHCl3/CH3OH (2:1 by volume) was used as a measure of the anandamide that was taken up by cells. Data are expressed as the concentration that produces 50% of inhibition of anandamide uptake (IC50) calculated with GraphPad.

Row | SMILES | IC50 [µM]
16 | CCCCCCCCCCCCCCCc1cccc(OCCCCCC(=O)NCCO)c1 [Compound 15, 6-(3-Pentadecyl-phenoxy)-hexanoic acid (2-hydroxy-ethyl)-amide] | > 25
17 | CCCCCCCCCCCCCCCc1cccc(OCCCCCC(=O)Nc2ccc(O)cc2)c1 [Compound 17, 6-(3-Pentadecyl-phenoxy)-hexanoic acid (4-hydroxy-phenyl)-amide] | > 25
18 | CCCCCCc1ccc(OCCCCCCCCCCC(=O)NC2CC2)cc1O [Compound 43, 11-(3-Hydroxy-4-hexyl-phenoxy)-undecanoic acid cyclopropylamide] | > 25
19 | CCCCCCc1ccc(O)cc1OCCCCCCCCCCC(=O)NCCO [Compound 51, 11-(2-Hexyl-5-hydroxy-phenoxy)-undecanoic acid (2-hydroxy-ethyl)-amide] | > 25

Same assay, conditions: read-out: AMT (n.a. class)

Row | SMILES | IC50 [µM]
20 | CCCCCc1cc(O)cc(OCCCCCCCCCCC(=O)Nc2ccc(O)cc2)c1 [Compound 26, 11-(3-Hydroxy-5-pentyl-phenoxy)-undecanoic acid (4-hydroxy-phenyl)-amide] | > 10

Target: T2, CB2 (Rattus norvegicus, UniProt Q9QZN9)
T2 construct: from tissue; host or cells: rat spleen membranes
T2 sequence (Q9QZN9 1-360): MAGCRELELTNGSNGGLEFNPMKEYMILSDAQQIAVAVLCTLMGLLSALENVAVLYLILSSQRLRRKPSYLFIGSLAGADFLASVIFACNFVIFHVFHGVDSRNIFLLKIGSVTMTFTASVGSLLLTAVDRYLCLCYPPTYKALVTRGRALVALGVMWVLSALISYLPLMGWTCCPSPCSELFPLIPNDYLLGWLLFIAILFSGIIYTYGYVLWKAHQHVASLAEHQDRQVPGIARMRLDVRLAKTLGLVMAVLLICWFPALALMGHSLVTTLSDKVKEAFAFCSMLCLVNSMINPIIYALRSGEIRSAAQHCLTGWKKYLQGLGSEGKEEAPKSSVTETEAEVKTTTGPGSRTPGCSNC
Assay: Preliminary selection with rat spleen membranes
Type: binding
Details: rat brain and spleen membranes, read-out: CB2 (n.a. class, IC50 in preliminary selection)

Row | SMILES | IC50 [µM]
21 | CCCCCc1cc(O)cc(OCCCCCC(=O)NCCO)c1 [Compound 21, 6-(3-Hydroxy-5-pentyl-phenoxy)-hexanoic acid (2-hydroxy-ethyl)-amide] | > 10
22 | O=C(CCCCCCCCCCOc1cccc(O)c1)NCCO [Compound 33, 11-(3-Hydroxy-phenoxy)-undecanoic acid (2-hydroxy-ethyl)-amide] | > 10

Test system: not given
Assay: not given
Details: not given

Row | SMILES | melting point [°C]
23 | CCCCCCCCCCCCCCCc1cccc(OCCCCCC(=O)NCCO)c1 [Compound 15, 6-(3-Pentadecyl-phenoxy)-hexanoic acid (2-hydroxy-ethyl)-amide] | 62.7
24 | CCCCCCCCCCCCCCCc1cccc(OCCCCCC(=O)NC2CC2)c1 [Compound 16, 6-(3-Pentadecyl-phenoxy)-hexanoic acid cyclopropylamide] | 67.8
25 | CCCCCCCCCCCCCCCc1cccc(OCCCCCC(=O)Nc2ccc(O)cc2)c1 [Compound 17, 6-(3-Pentadecyl-phenoxy)-hexanoic acid (4-hydroxy-phenyl)-amide] | 103.2
26 | CCCCCc1cc(O)cc(OCCCCCC(=O)Nc2ccc(O)cc2)c1 [Compound 23, 6-(3-Hydroxy-5-pentyl-phenoxy)-hexanoic acid (4-hydroxy-phenyl)amide] | 69.2
27 | O=C(CCCCCCCCCCOc1cccc(O)c1)NCCO [Compound 33, 11-(3-Hydroxy-phenoxy)-undecanoic acid (2-hydroxy-ethyl)-amide] | 72.1
28 | CCCCCCc1ccc(OCCCCCC(=O)NCCO)cc1O [Compound 39, 6-(3-Hydroxy-4-hexyl-phenoxy)-hexanoic acid (2-hydroxy-ethyl)-amide] | 71.2
29 | CCCCCCc1ccc(O)cc1OCCCCCCCCCCC(=O)NCCO [Compound 51, 11-(2-Hexyl-5-hydroxy-phenoxy)-undecanoic acid (2-hydroxy-ethyl)-amide] | 75.4

Target: human recombinant CB1 receptor (Homo sapiens, UniProt P21554)
Assay: not given
Type: binding
Design: purchased Perkin-Elmer; host or cells: COS cells
Details: recombinant human CB1, COS cell membranes

Chain of human recombinant CB1 receptor (P21554 whole entry): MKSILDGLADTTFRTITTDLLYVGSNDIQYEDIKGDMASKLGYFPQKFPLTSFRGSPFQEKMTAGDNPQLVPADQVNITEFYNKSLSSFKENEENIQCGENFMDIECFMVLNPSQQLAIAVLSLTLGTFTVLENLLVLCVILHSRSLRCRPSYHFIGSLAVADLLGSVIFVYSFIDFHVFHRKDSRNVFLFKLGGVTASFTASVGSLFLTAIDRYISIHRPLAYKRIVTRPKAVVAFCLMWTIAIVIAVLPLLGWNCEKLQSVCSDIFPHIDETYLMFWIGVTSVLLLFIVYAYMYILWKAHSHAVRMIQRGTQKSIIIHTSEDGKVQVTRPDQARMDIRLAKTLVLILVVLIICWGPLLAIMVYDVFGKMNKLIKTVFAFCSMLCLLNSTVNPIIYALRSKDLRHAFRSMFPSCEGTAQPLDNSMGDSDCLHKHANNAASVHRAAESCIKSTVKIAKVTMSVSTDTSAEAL

Row | SMILES | Ki [µM]
30 | CCCCCc1cc(O)cc(OCCCCCCCCCCC(=O)Nc2ccc(O)cc2)c1 [Compound 26, 11-(3-Hydroxy-5-pentyl-phenoxy)-undecanoic acid (4-hydroxy-phenyl)-amide] | 3

Target: human recombinant CB2 receptor (Homo sapiens, UniProt P34972)
Assay: CB2 binding, [3H]CP55,940 displacement, membranes from transfected COS cells
Design: purchased Perkin-Elmer; host or cells: COS cells
Details: CB1 Ki / CB2 Ki

Chain of human recombinant CB2 receptor (P34972 whole entry): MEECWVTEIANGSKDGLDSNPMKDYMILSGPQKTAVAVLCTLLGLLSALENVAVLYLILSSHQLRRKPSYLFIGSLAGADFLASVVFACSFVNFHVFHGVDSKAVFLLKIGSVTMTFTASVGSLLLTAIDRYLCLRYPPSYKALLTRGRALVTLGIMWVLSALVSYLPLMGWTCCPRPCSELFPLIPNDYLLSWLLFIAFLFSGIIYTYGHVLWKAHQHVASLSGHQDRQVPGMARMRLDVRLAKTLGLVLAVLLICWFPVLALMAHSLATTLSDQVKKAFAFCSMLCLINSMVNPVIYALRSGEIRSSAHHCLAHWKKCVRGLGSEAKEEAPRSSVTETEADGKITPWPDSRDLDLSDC

Row | SMILES | selectivity for CB2 with respect to the CB1 receptors
31 | CCCCCCc1ccc(OCCCCCCCCCCC(=O)NC2CC2)cc1O [Compound 43, 11-(3-Hydroxy-4-hexyl-phenoxy)-undecanoic acid cyclopropylamide] | at least 26 times

Same assay, conditions: recombinant human CB2, COS cell membranes

Row | SMILES | Ki [µM]
32 | CCCCCc1cc(O)cc(OCCCCCC(=O)NC2CC2)c1 [Compound 22, 6-(3-Hydroxy-5-pentyl-phenoxy)-hexanoic acid cyclopropylamide] | 0.96
33 | CCCCCc1cc(O)cc(OCCCCCCCCCCC(=O)Nc2ccc(O)cc2)c1 [Compound 26, 11-(3-Hydroxy-5-pentyl-phenoxy)-undecanoic acid (4-hydroxy-phenyl)-amide] | 1.4
34 | O=C(CCCCCCCCCCOc1cccc(O)c1)NC1CC1 [Compound 34, 11-(3-Hydroxy-phenoxy)-undecanoic acid cyclopropilamide] | 5.4
35 | CCCCCCc1ccc(OCCCCCC(=O)NCCO)cc1O [Compound 39, 6-(3-Hydroxy-4-hexyl-phenoxy)-hexanoic acid (2-hydroxy-ethyl)-amide] | 6.43
36 | CCCCCCc1ccc(OCCCCCCCCCCC(=O)NC2CC2)cc1O [Compound 43, 11-(3-Hydroxy-4-hexyl-phenoxy)-undecanoic acid cyclopropylamide] | 0.35
37 | CCCCCCc1ccc(O)cc1OCCCCCC(=O)NC1CC1 [Compound 49, 6-(2-Hexyl-5-hydroxy-phenoxy)-hexanoic acid cyclopropylamide] | 3.57
38 | CCCCCCc1ccc(O)cc1OCCCCCCCCCCC(=O)NCCO [Compound 51, 11-(2-Hexyl-5-hydroxy-phenoxy)-undecanoic acid (2-hydroxy-ethyl)-amide] | 0.42
